Patent publication US6448289B1, “Method for repelling arthropods” (priority 2000, dated 2002)

Columns and labels:
[1] = system: yellow fever mosquitoes (Aedes aegypti); assay: Repellency test against yellow fever mosquitoes on treated chick abdomen; assay type: in vivo; details: dosage 3 g/m^2, ethanol solution on chick abdomen
Method: Fifty adult yellow fever mosquitoes (Aedes aegypti, approximately equal number of female and male) which were about 3 weeks old after emergence were released in a cage (22 cm×22 cm×30 cm, made of stainless steel and nylon gauge).
A chick whose abdominal feathers had been removed with haircutter was fixed on a wood board (7 cm×15 cm) having a hole of 2.5 cm×4 cm so that its abdominal skin was exposed. Next, the ethanol solution (90 μl) prepared according to Production example 1 was treated on the exposed area of the chick. The chick treated the solution on its abdomen was put on the cage, and the treated abdomen was exposed to the cage just after treating and after 3 hours from treating. After 1, 2 and 4 minutes from putting the chick, the number of yellow fever mosquitoes on the abdomen was counted and summed up. The test was repeated twice.
Further, the same procedure was performed using a chick treated ethanol without active ingredient on its abdomen, and the number of yellow fever mosquitoes on the abdomen was counted. […] [formula]
Furthermore, the same procedure was performed using ethanol solution (90 μl) prepared according to Production example 1, provided that DEET was used in place of Compound [A] for comparison.

[2] = system: German cockroaches (Blattella germanica); assay: Repellency test against German cockroaches with impregnated filter paper triangular pillar; assay type: in vivo; details: 24 hours later, dosage 833 mg/m^2; for No. of cockroaches (German cockroaches in the triangular pillar): test repeated twice
Method: A triangular pillar (3 cm-equilateral triangle of opening, 6 cm in length) was prepared with filter paper, and the acetone solution (0.9 ml) prepared according to Production example 2 was impregnated with the triangular pillar uniformly and air-dried for 5 to 10 minutes.
In a 650 cc volume plastic cup, said triangular pillar was placed horizontally, German cockroaches (Blattella germanica, 5 males and 5 females) were placed in said plastic cup, covered with nylon gauze, and then observed the number of German cockroaches in the triangular pillar 24 hours later. The test was repeated twice.
Further, the same procedure was performed using a triangular pillar of filter paper impregnated acetone without active ingredient, and the number of German cockroaches in the triangular pillar 24 hours later was counted. […] [formula]
Furthermore, the same procedure was performed using acetone solution prepared according to Production example 2, provided that DEET or MGK874 was used in place of Compound [A] for comparison.

| Structure (SMILES) | No. of mosquitoes (sum of yellow fever mosquitoes on the abdomen of the chick after 1, 2 and 4 minutes) ([1]; After 3 hours) | Repellency (%) ([1]; After 3 hours) | No. of mosquitoes (sum of yellow fever mosquitoes on the abdomen of the chick after 1, 2 and 4 minutes) ([1]; Immediately after treating) | Repellency (%) ([1]; Immediately after treating) | Repellency (%) [2] [%] | No. of cockroaches (German cockroaches in the triangular pillar) [2] |
| --- | --- | --- | --- | --- | --- | --- |
| Cc1cc(O)c(C(=O)CCC(C)C)c(=O)o1 [Compound [A], 4-hydroxy-6-methyl-3-(4-methylpentanoyl)-2-pyrone] | 0 | 100 | 0 | 100 | 90 | 2 |
| CCN(CC)C(=O)c1cccc(C)c1 [DEET, N,N-diethyl-m-toluamide] | 3 | 96.5 | 0 | 100 | 0 | 20 |
| CCCCCCCCSCCO [MGK874, 2-(octylthio)ethanol] |  |  |  |  | 15 | 17 |
